Data reported in US10328075B2, “Method of treatment and compounds for use therein” (Baker Heart and Diabetes Institute, priority 2015, dated 2019).
No end group written: not given here.

Test system: neonatal rat ventricular cardiomyocyte
Experiment: Hypoxia-reoxygenation (simulated I-R) injury in neonatal rat cardiomyocytes, LDH and cTnI release
Assay type: cell-based
Conditions: 1 μM
Experimental: Isolation of primary neonatal rat ventricular cardiomyocyte: All materials used for cardiomyocyte isolation were of tissue culture grade. Cardiomyocyte isolation was performed by serial enzymatic digestions, as previously described (Irvine, J C et al, AJP, 2013). Cardiomyocyte were suspended in sterile DMEM, supplemented with 100 U/mL penicillin, 100 μg/mL streptomycin, and 10% FCS. The myocyte-rich cell suspension was preplated twice (45 min at 37° C.) to reduce fibroblast contamination. Cardiomycte was then plated onto 12-well plates at 0.5×10^6 for lactate dehydrogenase (LDH) assay in the presence of 1% 5-bromo-2′-deoxyuridine (BrdU, to limit proliferation of any remaining fibroblasts).
Simulated ischaemic-reperfusion in neonatal rat cardiomyocytes: The medium for cardiomyocytes was changed to serum-free low glucose DMEM after at least 48 h after isolation. […] Agonists were dissolved in DMEM or Krebs' buffer and were present for the full duration of hypoxia and reoxygenation. At the end of 48 h reoxygenation, culture supernatant aliquots was collected on ice and stored at −80° C. for assessment of cardiomyocyte injury. Samples were thawed on ice, and cell injury assessment determined via the level of LDH released into the supernatant, using the Cyto-Tox-One™ Homogeneous Membrane Integrity Assay as per manufacture's instruction (Promega Inc, Dane Country, Wis., USA). To confirm the extent of cardiomyocyte injury, levels of cTn in the supernatant were also evaluated, using a commercially available high-sensitivity rat cTnI ELISA kit (Life Diagnostic Inc, West Chester, Pa., USA) as per manufacturer's instructions.
Isolation and culture of primary rat cardiomyocytes and mouse cardiac fibroblasts: All materials used for cell isolation were of tissue culture grade. Isolation of primary neonatal rat cardiac cardiomyocytes (NRCM) and adult mouse cardiac fibroblasts (AMCF) was performed by serial enzymatic digestion, as previously described (Irvine et al 2012 & Irvine et al. 3) NRCM were plated onto either 12-well tissue culture plates (for simulated ischemia-reperfusion, via hypoxia-reoxygenation, H-R) or 60 mm tissue culture dishes (for gene expression) at a density of 1.3×10^5 cells/cm^2, in the presence of 1% 5-bromo-2′-deoxyuridine. AMCF (passage #3) were seeded onto 60 mm tissue culture dishes at 9.5×10^4 cells/cm^2 and allowed to grow to 80% confluence prior to study. Following 48 h in serum-free DMEM, NRCM in 12-well tissue plates were subjected to simulated ischemia, induced by replacement of culture media with sterile-filtered Kreb's buffer (118 mM NaCl, 4.8 mM KCl, 1.2 mM KH2PO4, 1.2 mM MgSO4, 25 mM NaHCO3, […], 11.0 mM glucose, 1.75 mM CaCl2) prior to incubation for 6 h at 37° C. under hypoxia (95% N2-5% CO2, using a hypoxia chamber, QNA International, Melbourne, Australia). At the end of hypoxia, Kreb's buffer was replaced with fresh, sterile-filtered Kreb's buffer, in the presence or absence of FPR agonists Cmpd17b, Cmpd43 (both 1 μM or vehicle, and NRCM were subjected to 48 h reoxygenation at 37° C. At the end of 48 h reoxygenation, NRCM supernatant was collected for assessment of cardiomyocyte injury. Cardiomyocyte release of cTnI was determined using a commercially available, high-sensitivity rat cTnI ELISA kit (Life Diagnostic Inc.) as per the manufacturer's instructions. Separate NRVM on 60 mm dishes were incubated for 48 h at 37° C. in serum-free DMEM, in the presence or absence of FPR agonists Cmpd17b, Cmpd43 (both 1 μM) or vehicle. At the end of 48 h, RNA was extracted and real-time PCR performed (as described previously (Huynh et al. 2012)), to determine the relative gene expression of rat Fprs (rFpr1, rFpr2 and rFpr3, expressed as the threshold cycle number Ct subtracted from the maximum cycle number utilized, 40).
Cardiomyocytes injury responses in vitro: Neonatal rat cardiomyocytes and adult mouse cardiofibroblasts were isolated and cultured as described (online Supplement). […]

[1] = present only during reoxygenation
[2] = present for the full duration of 6 h hypoxia and 48 h reoxygenation

| Compound | Cardiomyocyte cTnI release after hypoxia-reoxygenation [1] | Cardiomyocyte cTnI release after hypoxia-reoxygenation (present only during reoxygenation, listed as Cmpd17b) | Cardiomyocyte LDH release after hypoxia-reoxygenation [2] | Cardiomyocyte cTnI release after hypoxia-reoxygenation [2] | Cardiomyocyte LDH release after hypoxia-reoxygenation [1] |
| --- | --- | --- | --- | --- | --- |
| COc1cccc(Cc2cc(C)nn(C(C)C(=O)Nc3ccc(Br)cc3)c2=O)c1 (stereo not shown) [BIDI-001, N-(4-bromophenyl)-2-[5-(3-methoxybenzyl)-3-methyl-6-oxo-6H-pyridazin-1-yl]-propionamide] | significantly reduced | rescued |  |  |  |
| CC(C)C1C(NC(=O)Nc2ccc(Cl)cc2)C(=O)N(c2ccccc2)N1C (stereo not shown) [BIDI-002] | significantly reduced |  |  |  |  |
| Ac2-26: Annexin-A1 N-terminal peptide, peptide ANX-A1 mimetic (Ac-AMVSEFLKQAWFIENEEQEYVQTVK; UniProt P04083 2-26, looked up, fragment) | significantly attenuated |  | significantly reduced | significantly reduced | non-significant trend |
